Earlier results in US20110287113A1, “TREATMENT OF PSORIASIS” (Insense Limited, priority 2009, published 2011).

Legend:
[1] = under normal conditions
[2] = at 25° C.
[3] = under normal conditions; remark: listed apart in the source

N[C@@H](CSN=O)C(=O)O [S-nitrosocysteine]
time to total (100%) decomposition [1]: within minutes

O=NO [nitrite]
pKa [2]: 3.4

N[C@@H](CCC(=O)N[C@@H](CSN=O)C(=O)NCC(=O)O)C(=O)O [S-nitrosoglutathione]
time to total (100%) decomposition [1]: hours/days

[N]=O [NO, nitric oxide]
maximum solubility in water [3]: approximately 1.7 mM
